Here are results for 72 compounds from PubChem BioAssay AID179 (DTP/NCI, 2004).

The test deals with CEM cells HIV-1 protection, formazan growth assay. As to the kind of experiment: NCI AIDS Antiviral Assay. The following applies: for IC50: measured here: growth of uninfected CEM cells. The procedure, abridged:
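Protection of CEM cells against HIV-1 was scored from cell growth (soluble formazan) across five concentrations, with parallel uninfected cells. Lack of protection may reflect toxicity.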

Each structure is given as a SMILES string. Where “and” joins values, the source holds several entries; their conditions need not be identical. Equal values may be shown once. Calls of active or inactive are those of the source.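 Rule for the calls: active = compounds giving half or more protection of infected cells from virus-caused growth loss, again on retest; inactive = the rest.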

In the case of `NS(=O)(=O)c1ccccc1[N+](=O)[O-]`, the result was inactive.

Turning to `O=C(c1ccccc1)[C@H]1Nc2ccc(Cl)cc2[C@H]2c3ccccc3O[C@H]21`, the EC50 is over 27.5 µM and the half-inhibitory concentration (IC50) was over 27.5 µM.

Turning to `CCCCCCCCCCCCC1N=C(N)NC2(CCCO2)C1C(=O)OC` (stereo not drawn), the EC50 is over 200 µM and the IC50 came to 5.75 µM.

In the case of `CSc1nc2c(N)ncnc2n1C`, the EC50 was over 200 µM and the IC50 was over 200 µM.

In the case of `COc1ccc(C2SC(N)=Nc3c2c(C)nn3C(=O)c2ccc(Cl)cc2)cc1` (stereo not drawn), the EC50 is over 200 µM and the IC50 was found to be 151 µM.

Turning to `O=C(CCSSCCC(=O)ON1C(=O)CCC1=O)ON1C(=O)CCC1=O`, the EC50 is over 200 µM and the IC50 is over 200 µM.

Regarding `COC1/C=C/C=C/C=C/CC(OC(=O)C(C)NC(=O)C2CCCCC2)C(C)C(O)/C(C)=C\CCc2c(O)c(cc3c2SCC(=O)N3)NC(=O)C1` (stereo not drawn), the EC50 is over 2 µM and the IC50 was determined as 0.229 µM.

On to `COc1ccc(/C=C(\C#N)c2nc(-c3cc4ccccc4oc3=O)cs2)cc1`, for which the EC50 is 162 µM and the IC50 was over 200 µM.

For the compound `CC(NC(C)(C)C)C(=O)c1cccc(Cl)c1` (stereo not drawn), the EC50 is over 200 µM and the IC50 was over 200 µM.

As for `CC(C)C(C(=O)O)C(=O)O`, the EC50 is over 200 µM and the IC50 was over 200 µM.

As for `O=C1C(I)=CC(=C(c2cc(I)c(O)c(I)c2)c2ccccc2C(=O)O)C=C1I`, the outcome was inactive.

Take `COc1ccc2c3ccc4c(c3n(C)c2c1)C(=O)c1ccccc1C4=O`: the EC50 was over 1.51 µM and the 50% inhibitory concentration (IC50) is over 1.51 µM.

Consider `O=C1N[C@@H](Cc2ccccc2)C(=O)N2CSC[C@H]12`, for which the EC50 was over 631 µM and the IC50 was over 631 µM.

Turning to `O=C1OC2C(O)C3CC1C2O3` (stereo not drawn), the EC50 was over 1580 µM and the IC50 is over 1580 µM.

In the case of `CC1CC/C(=C\c2ccc(N(C)C)cc2)C(=O)/C1=C/c1ccc(N(C)C)cc1` (stereo not drawn), the EC50 is over 100 µM and the IC50 amounted to 60.3 µM.

As to `c1ccc2sc(CN(Cc3nc4ccccc4s3)Cc3nc4ccccc4s3)nc2c1`, the EC50 is over 40.7 µM and the IC50 was over 40.7 µM.

Take `Cc1cc2c(c(C=Nc3ccccc3O)c1)OC1(C=C2)Oc2ccccc2C(=O)N1C` (stereo not drawn): the EC50 is over 200 µM and the IC50 worked out at 25.1 µM.

`COC(=O)C1CC(C(=O)OC)c2nc3cc(C)c(C)cc3nc21` (stereo not drawn): the EC50 is over 83.2 µM and the 50% inhibitory concentration (IC50) was over 83.2 µM.

For the compound `COC(=O)c1c/c(=N\NC(=O)CC(=O)Nc2ccc(C)cc2)c2ccccc2o1`, the EC50 is over 631 µM and the IC50 is over 631 µM.

For the compound `COCCOCC(=O)N(CCn1ccc(NC(c2ccccc2)(c2ccccc2)c2ccccc2)nc1=O)CCn1cnc2nc(N)[nH]c(=O)c21`, the EC50 was 28.8 µM and the concentration for half-maximal inhibition (IC50) came to 60.3 µM.

`Cc1ccccc1C1=[N+]([O-])c2ccc(Cl)cc2C1=O`: the outcome was inactive.

Turning to `CC(C)(C)OC(=O)NC(Cc1ccccc1)C(=O)N[C@H]1c2ccsc2/C(=N/O)[C@H]1O` (stereo partly drawn), the EC50 was over 200 µM and the IC50 was 91.2 µM.

For the compound `CCOC(=O)C(O)(NC(C)=O)C(F)(F)F` (stereo not drawn), the EC50 is over 200 µM and the IC50 is over 200 µM.

Turning to `COc1ccc(Cc2c3cc(O)c(=O)cc-3ccn2C)cc1OC`, the EC50 was over 15.8 µM and the IC50 worked out at 8.13 µM.

For the compound `Cc1nc(C)c(N2CCNCC2)c(=O)[nH]1`, the outcome was inactive.

`CCc1cccc(C(C)C)c1NC(=O)C(=O)C1C(=O)Nc2ccccc2S1=O` (stereo not drawn): the EC50 is over 91.2 µM and the IC50 was over 91.2 µM.

With `COc1ccc(-c2cc(=O)c3c(C)cc(O)cc3o2)cc1OC`, the EC50 was over 200 µM and the IC50 was determined as 174 µM.

For the compound `CCOc1cc2c(cc1O)/C(=N\OC)C[C@@H]1[C@@H]2CC[C@]2(C)[C@@H](O)CC[C@@H]12`, the EC50 is over 200 µM and the IC50 was 0.0724 µM.

As for `O=c1c(-c2c(-c3ccccc3)oc3ccc(Cl)cc3c2=O)c(-c2ccccc2)oc2ccc(Cl)cc12`, the EC50 is over 200 µM and the IC50 is over 200 µM.

For the compound `O=C(O)c1ccc2c(c1)CC1(C2)Cc2cc3c(cc2C1=O)CCC3` (stereo not drawn), the EC50 is over 200 µM and the IC50 turned out to be 85.1 µM.

For the compound `CCOC(=O)C1=C(C(=O)OCC)C2c3ccccc3C=CN2C(C(=O)OCC)=C(SC)S1` (stereo not drawn), the EC50 is over 7.94 µM and the IC50 is over 7.94 µM.

As for `CCOC(=O)c1c(Cl)nc2ccccc2c1N=[N+]=[N-]`, the EC50 was over 200 µM and the IC50 was determined as 31.6 µM.

Regarding `C[N+](C)(C)CCNP(=O)(Oc1ccccc1)c1ccccc1` (stereo not drawn), the EC50 was over 562 µM and the IC50 is over 562 µM.

On to `CNC(=O)CCCC=C(c1cc(Cl)c(OC)c(C(=O)NC)c1)c1cc(Cl)c(OC)c(C(=O)NC)c1`, for which the EC50 is over 200 µM and the IC50 was 38.9 µM.

Consider `COC(=O)Cn1cnc2c(Cl)nc(Nc3ccccc3)nc21`, for which the EC50 was over 200 µM and the IC50 stood at 63.1 µM.

For `O=Cc1cc2c(cc1-c1cc3c(cc1C=O)OCO3)OCO2`, the EC50 is over 107 µM and the IC50 was over 107 µM.

In the case of `CCCCN(C)C(=O)COc1cc2c(O)c3c(O)c(C)c4c(c13)C(=O)C(C)(O/C=C/C(OC)C(C)C(OC(C)=O)C(C)C(O)C(C)C(O)C(C)/C=C/C=C(\C)C(=O)N2)O4` (stereo not drawn), the EC50 was 28.2 µM and the IC50 was 28.8 µM.

Consider `Cc1ccc([Si](O)(c2ccc(C)cc2)c2ccc(C)cc2)cc1`, for which the EC50 is over 200 µM and the IC50 turned out to be 12 µM.

With `Cc1ccn2c(N=O)c(-c3ccccc3)nc2c1`, the concentration giving a half-maximal response (EC50) is 135 µM and the IC50 is over 200 µM.

On to `CCCc1cc(=O)oc2c3c(c4c(c12)OC(C)(C)CC4)O[C@H](C)C(C)C3=O` (stereo partly drawn), for which the EC50 is 12.3 µM and the IC50 was 186 µM.

As for `O=N/C(=C(\c1ccccc1)N1CCOCC1)c1ccccc1`, the result was inactive.

For the compound `O=C1CCNC/C1=C\c1ccccc1`, the EC50 was over 6920 µM and the IC50 came to 19.1 µM.

For the compound `CC(=O)Nc1cc(S(=O)(=O)O)cc2cc(S(=O)(=O)O)c(N=Nc3ccc(C(=O)Nc4ccc5cc(S(=O)(=O)O)ccc5c4)cc3)c(O)c12`, the outcome was inactive.

Consider `COC(=O)CCS/C=C/C(=O)O`, for which the EC50 is over 1320 µM and the IC50 was over 1320 µM.

In the case of `COc1ccc(C(=O)C(CC2C(=O)NC(=O)NC2=O)c2ccc(OC)cc2)cc1` (stereo not drawn), the EC50 is over 34.7 µM and the IC50 was over 34.7 µM.

Regarding `O=S(=O)(OC(=C(c1ccccc1)c1ccccc1)c1ccccc1)C(F)(F)F`, the EC50 was over 17.8 µM and the IC50 is over 17.8 µM.

For the compound `CCC1Sc2cc(OC)cc3c2N(CCN3)C1=O` (stereo not drawn), the EC50 is over 200 µM and the IC50 is 57.5 µM.

For the compound `O=c1[nH]c2ccccc2nc1CBr`, the EC50 was over 200 µM and the IC50 was 2.82 µM.

With `O=C(CC(=O)N1N=C(N2CCCCC2)CC1c1ccccc1)Nc1ccccc1` (stereo not drawn), the EC50 is over 200 µM and the IC50 is over 200 µM.

Take `O=C(O)CN(c1cccc(Cl)c1)S(=O)(=O)c1ccccc1`: the result was inactive.

As to `CC(=O)C1=C(O)C2(O)C(=O)c3c(c(C)c4ccc(C)c(O)c4c3O)CC2C(N)C1=O` (stereo not drawn), the EC50 is over 53.7 µM and the 50% inhibitory concentration (IC50) was found to be 3.55 µM.

`COC(=O)c1cc2c(n1S(=O)(=O)c1ccc(C)cc1)C(=O)C(=O)c1[nH]cc(C(=O)OCc3ccccc3)c1-2`: the EC50 is over 200 µM and the IC50 amounted to 0.38 µM.

As for `COC(=O)C(=O)/C=C(\O)c1ccc(Cl)cc1`, the EC50 was over 200 µM and the IC50 was over 200 µM.

Consider `CCOC1C(CC/C=C\c2ccccc2)CCCCN1C(=O)OC(C)(C)C` (stereo not drawn), for which the EC50 was over 251 µM and the concentration for half-maximal inhibition (IC50) is over 251 µM.

With `O=C1NC(=O)C2C1C1C=C3c4ccccc4N(c4ccccc4)C32[C@H]2C(=O)NC(=O)[C@@H]12` (stereo partly drawn), the EC50 is over 316 µM and the IC50 was 112 µM.

Consider `O=C(O)c1ccc(N=Nc2ccc(/C=C/c3ccc(N=Nc4ccc(C(=O)O)cc4O)cc3S(=O)(=O)O)c(S(=O)(=O)O)c2)c(O)c1`, for which the EC50 was over 513 µM and the IC50 worked out at 4.27 µM.

For `O=C(Nc1nccs1)c1ccc(C(=O)Nc2nccs2)cc1`, the EC50 is over 200 µM and the IC50 was over 200 µM.

For `C#CCCCCC#Cc1ccccc1C(=O)C=[N+]=[N-]`, the EC50 was over 110 µM and the IC50 was 91.2 µM.

As to `Cc1cn(C2CC(N=[N+]=[N-])C(COP(=O)(OCC(=O)c3ccco3)OCC(=O)c3ccco3)O2)c(=O)[nH]c1=O` (stereo not drawn), the concentration giving a half-maximal response (EC50) is 0.00457 µM and the IC50 stood at 2 µM.

As to `CC(=O)C1=C(C)N2C(=NC3=C(CCc4ccccc43)C2c2ccc(Cl)cc2)S1` (stereo not drawn), the EC50 was over 200 µM and the IC50 is 18.6 µM.

`COC1=CC=C2CC(=C1)CCC1C2CCC2(C)C(=O)CCC12` (stereo not drawn): the result was inactive.

As to `Cc1ccc(SC[C@@]2(C(F)F)NC(=O)NC2=O)cc1`, the EC50 is over 200 µM and the IC50 was over 200 µM.

As for `CCOC(=O)c1ccc(Nc2nc3ccc(C(F)(F)F)cc3nc2C(=O)OCC)cc1`, the outcome was inactive.

Take `COc1ccc(N=N/C(=N/NC(=O)c2cc(Cl)ccc2C(=O)c2ccccc2)c2ccc(N(CCC#N)CCC#N)cc2C)cc1`: the EC50 was over 100 µM and the IC50 turned out to be 14.1 µM.

`N#C/C(=C\c1ccc(F)cc1)C(=O)c1ccccc1`: the EC50 was over 70.8 µM.

For the compound `Cc1ccc(C)c(N2C(=O)C(=O)c3c(C)ccc(C)c32)c1`, the EC50 is over 200 µM and the IC50 was 33.1 µM.

Regarding `Cc1ccc(NC(=O)CCc2nc(N)nc(N)c2-c2ccccc2)cc1C`, the EC50 was over 692 µM and the IC50 is over 692 µM.

As for `COc1c(O)cc2oc3cc(O)c(CC=C(C)C)c(O)c3c(=O)c2c1CC=C(C)C`, the EC50 is over 229 µM; the IC50 is 16.6 µM and 10.7 µM.

Consider `CC(C(=O)O)c1ccc2c(c1)[nH]c1ccc(Cl)cc12` (stereo not drawn), for which the EC50 was over 245 µM and the IC50 turned out to be 141 µM.

Turning to `O=CC1=CCC2c3[nH]c4ccccc4c3CCN2C1` (stereo not drawn), the EC50 is over 372 µM and the IC50 stood at 41.7 µM.

Regarding `ClCCc1ccccc1CC1=NCCc2ccccc21`, the EC50 was over 200 µM and the IC50 came to 36.3 µM.

Turning to `C[Si](C)(C)O[C@@H]1CCCC1NCC#N` (stereo partly drawn), the result was inactive.
